Reference: ChEMBL document CHEMBL4888484, “Replenishing the malaria drug discovery pipeline: Screening and hit evaluation of the MMV Hit Generation Library 1 (HGL1) against asexual blood stage Plasmodium falciparum ,using a nano luciferase reporter read-out” (2022)

What was measured:
[1] = Hit confirmation in dose-response curve in HepG2 cytotoxicity assay, at 72h; assay type: toxicity, cell-based; parameters: timepoint 72 hour; conditions: human, HepG2 cells
Plasmodium falciparum [2] = experiment: Hit confirmation in dose-response curve in NF54 nanoGlo assay, at 12h; assay type: functional, organism-based, Erythrocyte; parameters: timepoint 12 hour; conditions: Plasmodium falciparum, NF54, Erythrocyte, 12 h
Plasmodium falciparum [3] = experiment: Hit confirmation in dose-response curve in NF54 pLDH assay, at 72h; assay type: functional, organism-based; parameters: timepoint 72 hour; conditions: NF54, Erythrocyte
[4] = Re-testing in dose-response curve in HepG2 cytotoxicity assay, at 72h; assay type: toxicity, cell-based; parameters: timepoint 72 hour; conditions: human, HepG2 cells
Plasmodium falciparum [5] = experiment: Hit confirmation in dose-response curve in Dd2 pLDH assay, at 72h; assay type: functional, organism-based; parameters: timepoint 72 hour; conditions: Dd2, Erythrocyte
Plasmodium falciparum [6] = experiment: Re-testing in dose-response curve in 3D7 pLDH assay, at 72h; assay type: functional, organism-based; parameters: timepoint 72 hour; conditions: 3D7, Erythrocyte
Plasmodium falciparum [7] = experiment: Hit confirmation in dose-response curve in NF54 nanoGlo assay, at 72h; assay type: functional, organism-based, Erythrocyte; parameters: timepoint 72 hour; conditions: Plasmodium falciparum, NF54, Erythrocyte, 72 h

| Structure (SMILES) | IC50 (Plasmodium falciparum [2]) [µM] | IC50 (Plasmodium falciparum [3]) [µM] | IC50 (Plasmodium falciparum [5]) [µM] | IC50 (Plasmodium falciparum [6]) [µM] | IC50 (Plasmodium falciparum [7]) [µM] | IC50 at 72 h [1] [µM] | IC50 at 72 h [4] [µM] |
| --- | --- | --- | --- | --- | --- | --- | --- |
| COc1ccc(CC(=O)Nc2cc(C)n(-c3cccc(Cl)c3)n2)cc1 | 6.46 | 2.82 | 1.55 | 0.751 | 1.55 | > 10 | > 25 |
| Clc1cccc(CNCCCNc2ccncc2)c1Cl | 7.59 | 2 | 1.55 | 1.15 | 2 | > 10 | 16.3 |
| CN1CC[C@]2(CCN(c3ccnc4ccsc34)C2)C1 | 0.912 | 0.38 | 0.407 | 0.461 | 0.55 | > 10 | > 24.8 |
| COc1ccc(F)cc1S(=O)(=O)N1CCc2noc(N)c2C1 | > 10 | 0.912 | 0.955 | > 25 | 0.158 | > 10 | > 25 |
| Nc1c(-c2nc3ccccc3[nH]2)c2nc3ccccc3nc2n1Cc1ccccc1F | > 10 | 1.1 | 0.955 | 2.11 | 0.251 | > 10 | 24.7 |
| CCN1CCN(C2CCN(c3ncc(F)c(OC)n3)CC2)CC1 | > 10 | 3.89 | > 10 |  | 2.57 | > 10 |  |
| CCc1ccc(-c2cc3n(n2)C[C@@](C)(C(=O)NC2CCCCC2)N(c2cc(C)cc(C)c2)C3=O)cc1 | 5.75 | 10 | 7.59 |  | 2.29 | > 10 |  |
| Cc1nn(-c2nc3ccccc3[nH]2)c(O)c1CCC(C)C | 8.91 | 8.51 | 3.72 |  | 2.69 | > 10 |  |
| COc1ccc(C(=O)Nc2ccc3c(c2)C(=O)Nc2cccnc2O3)cc1OC | 11 | > 10 | > 10 |  | 3.16 | > 10 |  |
| Cn1nccc1/C=C1\CC2C3CCc4cc(O)ccc4C3CCC2(C)C1O (stereo unspecified) | > 10 | > 10 | > 10 |  | > 10 | > 10 |  |
| COc1c2c(cc3c1[C@@H](C#CCOc1ccccc1)[N+](C)(C)CC3)OCO2 | > 10 | 3.31 | 1.91 |  | 1.66 | > 10 |  |
| CC(C(=O)Nc1nccs1)N1CCCC(c2ccn[nH]2)C1 (stereo unspecified) | > 10 | 7.24 | 3.09 |  | 3.09 | > 10 |  |
| Nc1nc2c(s1)CN(CCc1ccccc1)CC2 | > 10 | 6.92 | 5.62 |  | 3.98 | > 10 |  |
| COc1ccccc1CN(C(=O)c1ccc(C)cc1)c1ccc(CC(=O)NCCN2CCCCC2)cc1 | > 10 | 0.513 | > 10 |  | 3.16 | > 10 |  |
| CCCN(CCC)CCN1C(=O)[C@@H]2C(C(=O)Nc3cc(Cl)cc(Cl)c3)[C@@H]3C=C[C@]2(O3)C1C(=O)NC1CCCCC1 (stereo partly specified) | > 10 | 3.72 | 3.02 |  | 2.51 | > 10 |  |
| COc1ccc2c(/C=C/c3cc[n+](C)cc3)cn(Cc3ccccc3)c2c1 | > 10 | 1.58 | 1.26 |  | 1.17 | > 10 |  |
| Cc1ccc(OCC(=O)Nc2cc(C)nn2-c2nc3c(cnn3-c3ccc(C)c(C)c3)c(=O)[nH]2)cc1 | > 10 | 4.07 | 6.92 |  | 2.09 | > 10 |  |
| CCN1CCN(C(=O)c2ccccc2N2CCC(NC(=O)c3cccc(Br)c3)CC2)CC1 | > 10 | 1.66 | 5.37 |  | 2.51 | > 10 |  |
| O=C1c2ccccc2C(c2ccc(NC(=O)c3cccc4ccccc34)cc2)(c2ccc(NC(=O)c3cccc4ccccc34)cc2)c2ccccc21 | > 10 | 4.47 | 1.58 |  | 0.871 | > 10 |  |
| O=C(Cc1ccc(N(Cc2cccc(F)c2)C(=O)C2CCCC2)cc1)NCCN1CCCCC1 | > 10 | 0.617 | 0.724 |  | 0.501 | > 10 |  |

Continued, in another order:

| IC50 (Plasmodium falciparum [2]) [µM] | IC50 (Plasmodium falciparum [3]) [µM] | IC50 (Plasmodium falciparum [5]) [µM] | IC50 (Plasmodium falciparum [6]) [µM] | IC50 (Plasmodium falciparum [7]) [µM] | Structure (SMILES) | IC50 at 72 h [1] [µM] | IC50 at 72 h [4] [µM] |
| --- | --- | --- | --- | --- | --- | --- | --- |
| 0.316 | 0.575 | 0.437 | 0.444 | 0.209 | Cc1ccc(O)c(CNCC2(c3ccccc3Cl)CCOCC2)n1 | > 10 | > 25 |
| 2.34 | 0.676 | 0.275 | 1.32 | 0.229 | Cc1cccc(CN(Cc2cccc(C)n2)C[C@H]2CCCCO2)n1 | > 10 | > 25 |
| 1.45 | 1.1 | 1 | 0.845 | 0.776 | COc1ccc2nc(O)c(C(=O)Nc3ccc4c(c3F)CCNC4)cc2c1 | 5.62 | 2.27 |
| 3.09 | 6.92 | 4.68 |  | 1.86 | CCOc1cc(C(c2c(C)n(C)n(-c3ccccc3)c2=O)c2c(C)n(C)n(-c3ccccc3)c2=O)ccc1OCc1ccccc1 | > 10 |  |
| 5.62 | 4.47 | 4.37 |  | 3.31 | Cc1ccc(OCCNc2cc([C@H]3C[C@H](N)C3)nc(C3CC3)n2)cc1C | > 10 |  |
| 2.69 | 3.24 | 2.82 |  | 1.74 | c1ccc(C(c2ccccc2)N2CCN(c3nn4cnnc4c4ccccc34)CC2)cc1 | > 10 |  |
| 3.47 | 9.77 | 7.41 |  | 2.24 | C[C@@]1(C(=O)NCc2ccccc2)Cn2nc(-c3ccccc3)cc2C(=O)N1c1ccc2c(c1)OCCO2 | > 10 |  |
| 4.79 | 8.32 | 4.27 |  | 2.51 | Cc1ccc(S(=O)(=O)Nc2c(S(=O)(=O)c3ccc(C)cc3)c3nc4ccccc4nc3n2CCC(C)C)cc1 | > 10 |  |
| 1 | 5.5 | 3.55 |  | 1.02 | Cc1nn(-c2ccccn2)c(O)c1C(c1ccccc1)c1c(C)nn(-c2ccccn2)c1O | > 10 |  |
| 2.88 | 2.19 | 2.63 |  | 2.14 | Cc1nnc(CNC(=O)Nc2cccc3c4c(oc23)CCCC4)o1 | > 10 |  |
| 2.69 | 5.13 | 2.75 |  | 1.15 | CCOc1ccc(C2c3[nH]c4ccccc4c3C[C@H]3C(=O)N(C4CCN(Cc5ccccc5)CC4)CC(=O)N23)cc1OC (stereo partly specified) | > 10 |  |
| 5.13 | 6.31 | 6.31 |  | 3.24 | Oc1cccc(CN2CCC3(CC2)C[C@H](c2ccccc2)CN(C2CC2)C3)c1 | > 10 |  |
| 2.04 | 2.75 | 2.75 |  | 1.58 | Oc1cccc(CN[C@H]2CCCc3occc32)c1Cl | > 10 |  |
| 2.82 | 3.24 | 2.19 |  | 0.933 | COc1cccc(S(=O)(=O)N2CCCN(Cc3ccncc3)[C@H](c3ccccc3)CC(=O)NCC2)c1 | > 10 |  |
